Ends that are not written are not given here.
Tests used:
p65-N = target: T1, p65-N (Homo sapiens, UniProt Q04206); test: In vitro protein binding assay of RL peptide with GST-p65-N; conditions: compared to phosphorylation-resistant mutant
T1 construct: made in house

PTEN-CaP8 tumors = test: PTEN-CaP8 mice tumor model, tumor growth; type: in vivo, mouse; conditions: C57BL/6 mice, s.c. PTEN-CaP8 tumors
Description: FIGS. 6A-J. The small S249/T252 phosphorylation-mimicking polypeptide of RB blocks irradiation-induced PD-L1 expression and inhibits cancer immune evasion. (A, B) PC-3 cells were infected with lentivirus expressing control shRNA or p65-specific or shRNA. 24 hours after puromycin selection, cells were treated with or without gamma irradiation (IR) (12 Gy). 48 hours after IR treatment, cells were harvested for western blotting analysis (A) and RT-qPCR analysis (B). All data were shown as mean values±SD (n=3). * P<0.05, ** P<0.01, *** P<0.001. (C, D) PC-3 cells were treated with without gamma irradiation (12 Gy). Cells were harvested at the indicated time point for western blotting analysis (C) and RT-qPCR analysis (D). All data were shown as mean values±SD (n=3). * P<0.05, ** P<0.01, *** P<0.001. (E) Western blot analysis of WCL and co-IP samples in PC-3 cells 48 hours after treated with or without gamma irradiation (12 Gy). […] (J) The absolute number of CD45^+CD8^+ T cells, CD45^+CD4^+ T cells, and CD11b^+Gr1^+ myeloid cells of implanted PTEN-CaP8 in tumors treated with indicated agents was analyzed by FACS. […]
6-week-old C57BL/6 mice (Jackson Lab) were used for animal experiments. […] The volume of xenografts was measured every other day and calculated using the formula L×W2×0.5. […]

T1 sequence (Q04206 19-306 limits assumed): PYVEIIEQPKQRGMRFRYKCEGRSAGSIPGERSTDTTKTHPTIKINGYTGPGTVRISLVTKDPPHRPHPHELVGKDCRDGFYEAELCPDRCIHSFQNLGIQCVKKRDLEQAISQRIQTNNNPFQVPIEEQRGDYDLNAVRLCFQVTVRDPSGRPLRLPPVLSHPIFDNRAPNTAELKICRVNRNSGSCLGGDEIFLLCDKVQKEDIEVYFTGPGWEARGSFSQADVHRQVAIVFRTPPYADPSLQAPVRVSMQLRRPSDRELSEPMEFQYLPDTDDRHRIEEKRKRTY

In the case of “RL-S249D/T252D: S249/T252 phospho-mimicking R-Linker (RL) peptide: fragment of RB-N containing 21 amino acids surrounding S249/T252, expressed SFB-tagged or by lentivirus (NGDPRDPRRGQNRSARIAKQL; also: expressed SFB-tagged (tag left off))”, the “binding of in vitro transcribed and translated RL peptide to p65-N” value (p65-N) is reported as “much stronger”, the “tumor growth, agent combined with gamma irradiation” value (PTEN-CaP8 tumors; 12 Gy) is reported as “tumors regressed” and the “tumor growth, agent without irradiation” value (PTEN-CaP8 tumors; anti-PD-L1 200 μg or lentiviral peptide expression) is reported as “markedly inhibited”.
